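Growth conditions: 96-well plates. Treatment: test compound, 48 hours, 5 concentrations. Analysis: linear interpolation between bracketing concentrations; unreached endpoints set to highest concentration. GI50 = concentration required for 50% inhibition of growth. TGI is the concentration that stops growth completely.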
Assays:
Assay in all cases: NCI anticancer screen, dose series, 48 h
DLD-1 colon = system: DLD-1 colon
EKVX NSCLC = system: EKVX NSCLC
HCT-116 colon = system: HCT-116 colon
M14 melanoma = system: M14 melanoma
MALME-3M melanoma = system: MALME-3M melanoma
SNB-78 CNS = system: SNB-78 CNS
TK-10 renal = system: TK-10 renal
XF 498 CNS = system: XF 498 CNS
BT-549 breast = system: BT-549 breast
PC-3 prostate = system: PC-3 prostate
SF-295 CNS = system: SF-295 CNS
KM20L2 colon = system: KM20L2 colon

Cn1c(=O)c2[nH]cnc2n(CC(N)=O)c1=O
TGI (DLD-1 colon): > 100 µM | TGI (EKVX NSCLC): > 100 µM | TGI (HCT-116 colon): > 100 µM | TGI (M14 melanoma): > 100 µM | TGI (MALME-3M melanoma): > 100 µM | TGI (SNB-78 CNS): > 100 µM | TGI (TK-10 renal): > 100 µM | TGI (XF 498 CNS): > 100 µM

CNS(=O)(=O)OCC1OC(n2cnc3c(N)ncnc32)C(O)C1O (configuration not stated)
GI50 (BT-549 breast): > 100 µM | TGI (BT-549 breast): > 100 µM | GI50 (EKVX NSCLC): > 100 µM | TGI (EKVX NSCLC): > 100 µM | GI50 (HCT-116 colon): > 100 µM | TGI (HCT-116 colon): > 100 µM | GI50 (M14 melanoma): > 100 µM | TGI (M14 melanoma): > 100 µM | GI50 (MALME-3M melanoma): > 100 µM | TGI (MALME-3M melanoma): > 100 µM | GI50 (PC-3 prostate): > 100 µM | TGI (PC-3 prostate): > 100 µM | GI50 (SF-295 CNS): > 100 µM | TGI (SF-295 CNS): > 100 µM | GI50 (TK-10 renal): > 100 µM | TGI (TK-10 renal): > 100 µM

O=C1c2ccccc2C(=O)c2c(NCC3CO3)ccc(NCC3CO3)c21 (configuration not stated)
TGI (BT-549 breast): 14.1 µM | TGI (EKVX NSCLC): > 51.5 µM | TGI (HCT-116 colon): 1.21 µM | TGI (M14 melanoma): 2.57 µM | TGI (MALME-3M melanoma): 18.3 µM | TGI (PC-3 prostate): 9.61 µM | TGI (SF-295 CNS): 23.7 µM | TGI (TK-10 renal): 45 µM

CCOC(=O)c1cnn2c3ccccc3n(S(=O)(=O)c3ccc(OC)cc3)c12
GI50 (BT-549 breast): 0.34 µM | TGI (BT-549 breast): 13.1 µM | GI50 (EKVX NSCLC): 0.583 µM | TGI (EKVX NSCLC): > 100 µM | GI50 (HCT-116 colon): 0.305 µM | TGI (HCT-116 colon): > 50.4 µM | GI50 (M14 melanoma): 0.211 µM | TGI (M14 melanoma): > 100 µM | GI50 (MALME-3M melanoma): 0.598 µM | TGI (MALME-3M melanoma): > 100 µM | GI50 (PC-3 prostate): 0.375 µM | TGI (PC-3 prostate): > 100 µM | GI50 (SF-295 CNS): 0.255 µM | GI50 (TK-10 renal): 25.2 µM | TGI (TK-10 renal): > 100 µM

O=C(Nc1cc(Oc2cc(F)c(NC(=O)C3(C(=O)Nc4ccc(F)cc4)CC3)cc2F)ccn1)C1CC1
GI50 (BT-549 breast): 3.07 µM | TGI (BT-549 breast): 7.09 µM | GI50 (EKVX NSCLC): 2.42 µM | TGI (EKVX NSCLC): 5.51 µM | GI50 (HCT-116 colon): 2.27 µM | TGI (HCT-116 colon): > 100 µM | GI50 (M14 melanoma): 1.53 µM | TGI (M14 melanoma): 5.23 µM | GI50 (MALME-3M melanoma): 0.324 µM | TGI (MALME-3M melanoma): 2.47 µM | GI50 (PC-3 prostate): 2.51 µM | TGI (PC-3 prostate): 6.85 µM | GI50 (SF-295 CNS): 2.21 µM | TGI (SF-295 CNS): 9.91 µM | GI50 (TK-10 renal): 4.14 µM | TGI (TK-10 renal): > 100 µM

CN(C)CCNC(=O)c1cccc2ccc(-c3ccc(-c4ccccc4)cc3)nc12
TGI (DLD-1 colon): 8.64 µM | TGI (EKVX NSCLC): 24.6 µM | TGI (HCT-116 colon): 3.4 µM | TGI (KM20L2 colon): 4.67 µM | TGI (M14 melanoma): 3.48 µM | TGI (MALME-3M melanoma): 3.61 µM | TGI (SF-295 CNS): 4.03 µM | TGI (SNB-78 CNS): 28.3 µM | TGI (TK-10 renal): 9.43 µM

Nc1ccccc1C#C/C=C\C#Cc1c(F)c(F)c(F)c(F)c1F
GI50 (BT-549 breast): 10.3 µM | TGI (BT-549 breast): 28.6 µM | GI50 (EKVX NSCLC): 29.7 µM | TGI (EKVX NSCLC): 99.1 µM | GI50 (HCT-116 colon): 16 µM | TGI (HCT-116 colon): 31.1 µM | GI50 (M14 melanoma): 15 µM | TGI (M14 melanoma): 29.4 µM | GI50 (MALME-3M melanoma): 18.6 µM | TGI (MALME-3M melanoma): 40.1 µM | GI50 (PC-3 prostate): 16.6 µM | TGI (PC-3 prostate): 43.3 µM | GI50 (SF-295 CNS): 20.3 µM | TGI (SF-295 CNS): 46.6 µM | GI50 (TK-10 renal): 20.1 µM | TGI (TK-10 renal): 40.7 µM

COC(=O)/C=c1\s/c(=C\C(=O)OC)c2ccccc12
TGI (DLD-1 colon): > 100 µM | TGI (EKVX NSCLC): > 100 µM | TGI (HCT-116 colon): > 100 µM | TGI (KM20L2 colon): > 100 µM | TGI (M14 melanoma): > 100 µM | TGI (MALME-3M melanoma): > 100 µM | TGI (SF-295 CNS): > 100 µM | TGI (SNB-78 CNS): > 100 µM | TGI (TK-10 renal): > 100 µM

— PubChem BioAssay (NCI)
